Test results: ChEMBL document CHEMBL1201862, “PubChem BioAssay data set” (2004)
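Five concentrations, 48 hours, 96-well plates. At the GI50, growth is halved.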 Active and inactive are the calls of the source. No stated cut-off is given here; in the data, active = GI50 up to about 1.1 µM and inactive = higher. Square brackets hold non-standard residues; d marks the D form. Peptide text beside a SMILES is read from it. * marks the point of attachment. Boc = CC(C)(C)OC(=O)*; Lac = C[CH](O)C(=O)O; OBn = c1ccc(CO*)cc1

Key:
Experiment in all cases: NCI-60 cell line screen, 48 h
CCRF-CEM = system: CCRF-CEM
COLO 205 = system: COLO 205
HCT-15 = system: HCT-15
HOP-62 = system: HOP-62
HT-29 = system: HT-29
KM12 = system: KM12
NCI-H23 = system: NCI-H23
OVCAR-3 = system: OVCAR-3
OVCAR-5 = system: OVCAR-5
OVCAR-8 = system: OVCAR-8
RPMI-8226 = system: RPMI-8226
SF-268 = system: SF-268
SNB-19 = system: SNB-19
SW-620 = system: SW-620
U-251 = system: U-251
UACC-257 = system: UACC-257
CAKI-1 = system: CAKI-1
Malme-3M = system: Malme-3M
NCI-H522 = system: NCI-H522
SK-OV-3 = system: SK-OV-3

Row | SMILES | GI50 (CCRF-CEM) | GI50 (COLO 205) | GI50 (HCT-15) [µM] | GI50 (HOP-62) | GI50 (HT-29) | GI50 (KM12) | GI50 (NCI-H23) | GI50 (OVCAR-3) | GI50 (OVCAR-5) | GI50 (OVCAR-8) | GI50 (RPMI-8226) | GI50 (SF-268) | GI50 (SNB-19) | GI50 (SW-620) | GI50 (U-251) | GI50 (UACC-257) | GI50 (CAKI-1) | GI50 (Malme-3M) | GI50 (NCI-H522) | GI50 (SK-OV-3)
1 | COc1ccc(C(=O)NNC(=O)c2nsc3ccccc23)cc1 | 24.7 µM (inactive) | > 100 µM (inactive) | 41.7 | 44.5 µM (inactive) | 61.7 µM (inactive) | > 100 µM (inactive) | > 100 µM (inactive) | 30.8 µM (inactive) | > 100 µM (inactive) | 60.1 µM (inactive) | 52.5 µM (inactive) | > 100 µM (inactive) | > 100 µM (inactive) | > 100 µM (inactive) | 41.1 µM (inactive) | > 100 µM (inactive) | – | – | – | –
2 | CCOC(=O)C1CCn2c(nc3c2c(=O)n(C)c(=O)n3C)S1 (stereo unspecified) | > 100 µM (inactive) | – | > 100 | > 100 µM (inactive) | > 100 µM (inactive) | – | > 100 µM (inactive) | > 100 µM (inactive) | > 100 µM (inactive) | > 100 µM (inactive) | > 100 µM (inactive) | > 100 µM (inactive) | > 100 µM (inactive) | > 100 µM (inactive) | > 100 µM (inactive) | > 100 µM (inactive) | > 100 µM (inactive) | > 100 µM (inactive) | > 100 µM (inactive) | > 100 µM (inactive)
3 | CCC(=O)NC(Nc1cccc(F)c1)(C(F)(F)F)C(F)(F)F | 60 µM (inactive) | > 100 µM (inactive) | > 100 | – | > 100 µM (inactive) | > 100 µM (inactive) | > 100 µM (inactive) | > 100 µM (inactive) | > 100 µM (inactive) | > 100 µM (inactive) | > 100 µM (inactive) | > 100 µM (inactive) | > 100 µM (inactive) | > 100 µM (inactive) | 90.6 µM (inactive) | > 100 µM (inactive) | 10.7 µM (inactive) | – | 29.6 µM (inactive) | > 100 µM (inactive)
4 | C[C@H]1S[C@@H](c2ccc(Cl)cc2Cl)N(NC(=O)c2ccncc2)C1=O | 11.3 µM (inactive) | 70.6 µM (inactive) | 47.9 | > 100 µM (inactive) | > 100 µM (inactive) | > 100 µM (inactive) | 50.4 µM (inactive) | 35.6 µM (inactive) | 95.9 µM (inactive) | > 100 µM (inactive) | 40.2 µM (inactive) | – | 62.4 µM (inactive) | – | 64 µM (inactive) | – | 56.2 µM (inactive) | > 100 µM (inactive) | 37.8 µM (inactive) | > 100 µM (inactive)
5 | Nc1ccccc1C(=O)N/N=C1\C(=O)Nc2ccccc21 | > 100 µM (inactive) | > 100 µM (inactive) | > 100 | 43.6 µM (inactive) | > 100 µM (inactive) | 88.5 µM (inactive) | 56.2 µM (inactive) | > 100 µM (inactive) | > 100 µM (inactive) | > 100 µM (inactive) | – | 88.7 µM (inactive) | 35.4 µM (inactive) | – | 40.2 µM (inactive) | > 100 µM (inactive) | > 100 µM (inactive) | > 100 µM (inactive) | 89.9 µM (inactive) | > 100 µM (inactive)
6 | Cc1n[nH]c(CC#N)n1 | > 100 µM (inactive) | > 100 µM (inactive) | > 100 | > 100 µM (inactive) | > 100 µM (inactive) | > 100 µM (inactive) | > 100 µM (inactive) | > 100 µM (inactive) | > 100 µM (inactive) | > 100 µM (inactive) | > 100 µM (inactive) | > 100 µM (inactive) | > 100 µM (inactive) | > 100 µM (inactive) | > 100 µM (inactive) | > 100 µM (inactive) | – | – | > 100 µM (inactive) | > 100 µM (inactive)
7 | COC(=O)C(F)C(Br)C(=O)OC (stereo unspecified) | 0.684 µM (active) | 1.67 µM (inactive) | 1.82 | 16.3 µM (inactive) | 2.57 µM (inactive) | 20.3 µM (inactive) | 6.03 µM (inactive) | 2.11 µM (inactive) | 16.4 µM (inactive) | 3.63 µM (inactive) | 1.41 µM (inactive) | 7.71 µM (inactive) | 30.7 µM (inactive) | 1.95 µM (inactive) | 3.05 µM (inactive) | 14.6 µM (inactive) | 2.35 µM (inactive) | 6.47 µM (inactive) | 1.43 µM (inactive) | 18.5 µM (inactive)
8 | COc1cc2cc(C(=O)N3CC(CCl)c4ccc(NO)cc43)[nH]c2c(OC)c1OC (stereo unspecified) | 0.137 µM (active) | 0.468 µM (active) | 0.243 | 0.0925 µM (active) | 0.0646 µM (active) | 0.155 µM (active) | 0.0693 µM (active) | 0.257 µM (active) | 0.15 µM (active) | 0.184 µM (active) | 0.117 µM (active) | 0.101 µM (active) | 0.264 µM (active) | 0.166 µM (active) | 0.0927 µM (active) | 0.201 µM (active) | 0.227 µM (active) | 0.164 µM (active) | 0.0671 µM (active) | 0.284 µM (active)
9 | CC1CC2=C(S(=O)(=O)c3ccccc3)CC(S(=O)(=O)c3ccccc3)(S(=O)(=O)c3ccccc3)CC21 (stereo unspecified) | 27.4 µM (inactive) | > 100 µM (inactive) | > 100 | > 100 µM (inactive) | > 100 µM (inactive) | > 100 µM (inactive) | > 100 µM (inactive) | > 100 µM (inactive) | > 100 µM (inactive) | > 100 µM (inactive) | 88.1 µM (inactive) | > 100 µM (inactive) | > 100 µM (inactive) | > 100 µM (inactive) | 72.6 µM (inactive) | > 100 µM (inactive) | – | – | – | > 100 µM (inactive)
10 | OC1CCOc2ccccc21 (stereo unspecified) | > 100 µM (inactive) | > 100 µM (inactive) | > 100 | > 100 µM (inactive) | > 100 µM (inactive) | > 100 µM (inactive) | > 100 µM (inactive) | > 100 µM (inactive) | > 100 µM (inactive) | > 100 µM (inactive) | > 100 µM (inactive) | > 100 µM (inactive) | > 100 µM (inactive) | > 100 µM (inactive) | > 100 µM (inactive) | – | > 100 µM (inactive) | > 100 µM (inactive) | > 100 µM (inactive) | > 100 µM (inactive)
11 | Cc1cc(=O)oc2c1cc1ccc3cccc4ccc2c1c34 | > 100 µM (inactive) | > 100 µM (inactive) | > 100 | – | > 100 µM (inactive) | – | > 100 µM (inactive) | > 100 µM (inactive) | – | > 100 µM (inactive) | > 100 µM (inactive) | > 100 µM (inactive) | 64.7 µM (inactive) | > 100 µM (inactive) | 41.2 µM (inactive) | – | > 100 µM (inactive) | > 100 µM (inactive) | 64.7 µM (inactive) | > 100 µM (inactive)
12 | COP(=O)(OC)C(N)Cc1c[nH]c2ccccc12 (stereo unspecified) | – | > 100 µM (inactive) | > 100 | > 100 µM (inactive) | > 100 µM (inactive) | – | > 100 µM (inactive) | > 100 µM (inactive) | > 100 µM (inactive) | > 100 µM (inactive) | > 100 µM (inactive) | – | > 100 µM (inactive) | > 100 µM (inactive) | > 100 µM (inactive) | > 100 µM (inactive) | > 100 µM (inactive) | – | > 100 µM (inactive) | > 100 µM (inactive)
13 | O=C1CSC(/C=C/c2ccccc2)N1c1nc2cc3sc(N4C(=O)CSC4/C=C/c4ccccc4)nc3cc2s1 (stereo unspecified) | 3.53 µM (inactive) | 3.66 µM (inactive) | > 34.1 | > 74 µM (inactive) | 18 µM (inactive) | 48.9 µM (inactive) | > 48.3 µM (inactive) | 38.8 µM (inactive) | > 65.6 µM (inactive) | > 100 µM (inactive) | 22 µM (inactive) | > 100 µM (inactive) | > 84.5 µM (inactive) | 9.46 µM (inactive) | 44.6 µM (inactive) | > 86.5 µM (inactive) | 53 µM (inactive) | > 87.1 µM (inactive) | 6.97 µM (inactive) | > 100 µM (inactive)
14 | CC1CC(C[N+](=O)[O-])CC2(C1)OCCO2 (stereo unspecified) | > 100 µM (inactive) | > 100 µM (inactive) | > 100 | > 100 µM (inactive) | – | > 100 µM (inactive) | – | > 100 µM (inactive) | – | > 100 µM (inactive) | > 100 µM (inactive) | > 100 µM (inactive) | > 100 µM (inactive) | > 100 µM (inactive) | > 100 µM (inactive) | > 100 µM (inactive) | > 100 µM (inactive) | > 100 µM (inactive) | > 100 µM (inactive) | > 100 µM (inactive)
15 | Cn1c(=O)c(C#N)c(O)c2cc3ccccc3nc21 | > 100 µM (inactive) | > 100 µM (inactive) | > 100 | – | – | > 100 µM (inactive) | > 100 µM (inactive) | – | – | > 100 µM (inactive) | > 100 µM (inactive) | > 100 µM (inactive) | > 100 µM (inactive) | > 100 µM (inactive) | > 100 µM (inactive) | > 100 µM (inactive) | > 100 µM (inactive) | > 100 µM (inactive) | – | > 100 µM (inactive)
16 | CC(OC(=O)C(Cc1ccccc1)NC(=O)C(Cc1ccccc1)NC(=O)OC(C)(C)C)C(=O)OCc1ccccc1 (stereo not drawn) (Boc-Phe-Phe-[Lac]-OBn; configuration not given here) | > 100 µM (inactive) | > 100 µM (inactive) | > 100 | > 100 µM (inactive) | – | > 100 µM (inactive) | > 100 µM (inactive) | > 100 µM (inactive) | > 100 µM (inactive) | > 100 µM (inactive) | 94 µM (inactive) | – | > 100 µM (inactive) | – | > 100 µM (inactive) | – | > 100 µM (inactive) | > 100 µM (inactive) | > 100 µM (inactive) | > 100 µM (inactive)
